Tests used:
[1] = tested on: CHO cell line producing a recombinant IgG2 monoclonal antibody; test: Batch culture in serum-free DMEM/F12 with supplemental polyamines: viable cell density and viability; type: cell-based, Chinese hamster; settings: 3 days; for Culture viability versus cells without supplemental polyamines (FIG. 1b) / Viable cell density versus basal DMEM/F12 media (FIG. 1a): supplemental polyamine
Procedure: To test the effect of high concentration polyamine media formulations on cell culture performance a CHO cell line producing a recombinant IgG2 monoclonal antibody was seeded at 2.5×10^5 cells/ml in serum-free DMEM/F12 (SAFC, Lenexa, Kans.). DMEM/F12 contains 503 nM putrescine as a component of the commercial formulation. […] Cells were maintained in suspension culture for three days at 36° C. in 5% CO2. Total cell density and viable cell density were measured using a Guava Easy-Cyte™ flow cytometer and Guava Viacount® Flex reagent (Hayward, Calif.) according to manufacture's instructions.
Following three days culture in the polyamine-supplemented-DMEM/F12 media, viable cell density and culture viability were measured, see FIGS. 1a and 1b. Mean viability is presented as percent of viable cells and viable cell density is presented as number of cells/ml.

[2] = tested on: CHO cell line producing a recombinant IgG2 monoclonal antibody; settings: 6 days, VM-Soy
Procedure: VM-Soy basal media contains 0.98 μM (0.1620 mg/l) putrescine as a component of its formulation. […] Cells were seeded at 2.5×10^5 cells/ml and maintained for six days at 36° C. in 5% CO2. Viable cell density and cell viability were measured as described above.
Antibody titer was measured by immunoturbidietric analysis using a Poly-Chem® analyzer and High Sensitivity IgG reagents (Polymedco, Cortlandt Manor, N.Y.) according to the manufacturer's instructions.

[3] = tested on: four different recombinant monoclonal IgG2 antibody-producing CHO cell lines; settings: fed-batch, 10 μM spermine
Procedure: The medium was an enriched formulation of DMEM/F12 medium (ingredients supplied by SAFC, Lenexa, Kans.). The medium contained putrescine at a concentration of 0.014 mM. […] Cells were maintained in suspension culture for 11 days at 36° C., 5% CO2. Cultures were fed an enriched feed medium on the fourth, seventh, and ninth days of culture. The feed volume was equal to nine percent of the initial batch culture volume. […] Glucose was also fed on the fourth, seventh, and ninth days of culture in order to prevent depletion. Viable cell density and cell viability were measured as described above.
The titer of the antibodies produced in cell culture was determined using POROS® (Applied Biosystems) Protein A chromotagraphy HPLC chromotagraphy.

[4] = tested on: CHO cell line producing a recombinant IgG1 monoclonal antibody; settings: fed-batch
Procedure: The medium was an enriched formulation of DMEM/F12 that was less concentrated than the media used in Example 3. The medium already contained putrescine at 0.014 mM. […] Cells were maintained in suspension culture for 8 days at 36° C., 5% CO2. Cultures were fed a rich medium on the fourth day of culture. […] The feed volume was equal to seven percent of the initial batch culture volume. The feed medium contained putrescine and delivered 0.0019 mM putrescine to the cultures as a result of each feed. Glucose was also fed on the fourth day of culture in order to prevent depletion. Viable cell density and cell viability were measured as described above.
Antibody titer was measured by immunoturbidimetric analysis using a Poly-Chem® analyzer and High Sensitivity IgG reagents (Polymedco, Cortlandt Manor, N.Y.) according to the manufacturer's instructions.

[5] = tested on: Human-human hybridoma HB4C5 cells; settings: spermine 2.4 mM or higher; increased over the control; cited from earlier work

## Cl.Cl.Cl.Cl.NCCCNCCCCNCCCN [spermine, spermine tetrahydrochloride]
[1]; DMEM/F12
  Spermine concentration giving the greatest increase in cell viability (FIG. 1b): 50 µM
[1]; DMEM/F12, 10-50 μM spermine
  Cell viability increase compared to unsupplemented control media: up to 20%
  Viable cell density increase compared to unsupplemented control media: up to 49%
[1]
  Culture viability versus cells without supplemental polyamines (FIG. 1b): higher
  Viable cell density versus basal DMEM/F12 media (FIG. 1a): higher
[2]
  Spermine concentration giving the greatest increase in antibody concentration (FIG. 2c): 50 µM
  Spermine concentration giving the greatest increase in viable cell density (FIG. 2a): 50 µM
[2]; 50 μM spermine
  Antibody titer increase (greatest): 9%
  Cell viability increase (greatest): 29%
  Viable cell density increase (greatest): 23%
[2]; 10-200 μM spermine
  Antibody titer increase compared to the untreated control: 5-9%
  Cell viability increase compared to the unsupplemented control: 22-29%
  Viable cell density increase compared to the unsupplemented control: 8-23%
[3]; range over four cell lines
  Antibody titer increase compared to the untreated controls (FIG. 3c): 7-17%
[3]; 11 days
  Cell viability versus control without spermine (FIG. 3b): largely unaffected
  Viable cell density versus control without spermine (FIG. 3a): greater
[4]; 0.1-500 μM spermine
  Effect of spermine concentration on titer: dose-dependent response
[4]; 8 days, 0.1-500 μM spermine
  Viable cell density versus control (FIGS. 4a and 4b): greater
[4]; Day 8, 0.1-500 μM spermine
  Antibody titer increase compared to the untreated controls (FIG. 4d): 7-17%
[4]; Day 8, 5-50 μM spermine
  Ending cell viability (FIG. 4c): increased
[5]
  Protein production: less than 1 mg/l

## NCCCCNCCCN [spermidine, spermidine tetrachdrochloride]
[1]
  Culture viability versus cells without supplemental polyamines (FIG. 1b): higher
  Viable cell density versus basal DMEM/F12 media (FIG. 1a): higher

## Cl.Cl.NCCCCN [putrescine, putrescine dihydrochloride]
[1]
  Culture viability versus cells without supplemental polyamines (FIG. 1b): higher
  Viable cell density versus basal DMEM/F12 media (FIG. 1a): higher

Reference: US20100221823A1, “METHOD FOR CULTURING MAMMALIAN CELLS TO IMPROVE RECOMBINANT PROTEIN PRODUCTION” (Amgen Inc., priority 2007, published 2010)
